# What was measured:
# diabetic CD-1 mice = experiment: FA modulators (fenofibrate, etomoxir, C75, simvastatin) in diabetic CD-1 mice; assay type: in vivo, mouse; details: for CPT1a level / FAO, as measured by [14CO2] release / β-catenin level / fibrogenic phenotype / level of fibrosis / level of GR protein in CD31 positive cells: diabetic CD-1 mice; for fibrogenic phenotype / level of fibrosis / level of GR protein in CD31 positive cells: treated for 4 weeks; for fibronectin mRNA level / αSMA mRNA level: diabetic kidneys, CD-1 mice
# Description: FIG. 33A-33F show endothelial GR is essential for the action of anti-dyslipidemic drugs in the diabetic kidney disease. (FIG. 33A) Masson trichrome (MTS) and Sirius red staining in kidneys of control, diabetic, fenofibrate-, etomoxir-, C75- and simvastatin-treated diabetic mice. Representative images (original magnification 300×) are shown. Relative area of fibrosis (%) and relative collagen deposition (%) were measured using the ImageJ program. n=6 biologically independent mice/group combined from two experiments were analyzed. Scale bar 50 μm. (FIG. 33B) Co-immunolabeling of GR/CD31 was analyzed by fluorescence microscopy. FITC-labeled GR, rhodamine-labeled CD31 and DAPI were used. Representative images are shown; original magnification 300×. Scale bar 50 μm. n=6 biologically independent mice/group combined from two experiments were analyzed. (FIG. 33C) PCR gene analiof fibronectin and α-SMA in the kidneys. 18S was used as an internal control. n=6 biologically independent mice/group. (FIG. 33D) Blood glucose measurements in control, diabetic, fenofibrate-, etomoxir-, C75- and simvastatin-treated diabetic mice. n=6 biologically independent mice/group. (FIG. 33E) Radiolabeled [^14C]palmitate oxidation and [^14CO2]release were measured. CPM of each sample was counted. Endothelial cells isolated from six biologically independent mice were evaluated. Three independent experiments were analyzed. Data are mean±SEM (FIG. 33F) Immunohistochemical analysis of CPT1a and β-catenin was analyzed in the kidneys of control, diabetic, fenofibrate-, C75-, etomoxir- and simvastatin-treated diabetic mice. n=6 biologically independent mice/group. Representative images are shown; original magnification 400×. Scale bar 50 μm. Data are mean SEM. In all panels, one-way Anova with Tukey multiple comparison post hoc test was used to calculate statistical significance. Significance—*p<0.05, **p<0.01, ***p<0.001. Con: control, DM: diabetic, feno: fenofibrate.
# A single IP dose of 200 mg/kg STZ was used to induce diabetes in CD-1 mice.
# In one experiment, male mice were randomized to one of 4 groups sixteen weeks after induction of diabetes: (i) untreated, (ii) fenofibrate (100 mg/kg), (iii) simvastatin (40 mg/kg), or (iv) Wnt inhibitor (LGK974; 5 mg/kg). In each case, mice were treated for 4 weeks and compared to untreated diabetic CD-1 mice. In another experiment, male diabetic CD-1 mice were randomized into one of 3 groups: (i) untreated (vehicle), (ii) etomoxir (20 mg/kg) or (iii) C75 (15 mg/kg); in each case mice were treated (IP) three times/week for a total 4 weeks.
# Morphological Evaluation. A point-counting method was utilized to evaluate the relative area of the mesangial matrix. The inventors analyzed PAS-stained glomeruli from each mouse using a digital microscope screen grid containing 540 (27×20) points. Masson's trichrome-stained images were evaluated by ImageJ software, and the fibrotic areas were estimated.
# Sirius red staining. Deparaffinized sections were incubated with picrosirius red solution for 1 hour at room temperature. The slides were washed twice with acetic acid solution for 30 seconds per wash. The slides were then dehydrated in absolute alcohol three times, cleared in xylene, and mounted with a synthetic resin. Sirius red staining was analyzed using ImageJ software, and fibrotic areas were quantified.
# Immunohistochemistry. Paraffin-embedded kidney sections (5 μm thick) were deparaffinized and rehydrated (2 min in xylene, four times; 1 min in 100% ethanol, twice; 1 min in 95% ethanol; 45 s in 70% ethanol; and 1 min in distilled water), and the antigen was retrieved in a 10 mM citrate buffer pH 6 at 98° C. for 60 min. To block the endogenous peroxidase, all sections were incubated in 0.3% hydrogen peroxide for 10 min. The immunohistochemistry was performed using a Vectastain ABC Kit (Vector Laboratories, Burlingame, CA). Mouse anti-β-catenin antibody (1:100) and CPT1a (Abnova; H00001374-DO1P; 1:100) antibodies were used. […]
# [1] = system: control littermates and GR^ECKO mice; experiment: Etomoxir and C75 in non-diabetic and diabetic control littermates and GR^ECKO mice; assay type: in vivo, mouse; details: for level of renal fibrosis: nondiabetic control and GR^ECKO mice
# Description: FIGS. 6A-6E show metabolic reprogramming by loss of endothelial GR loss worsens diabetic kidney disease. (FIG. 6A) Radiolabeled ^14C-palmitate uptake analysis in isolated endothelial cells from kidneys of nondiabetic and diabetic control, GR^ECKO Apoe^−/− and DKO mice. CPM of each sample were counted. Data were normalized to μg protein. Fold activity is presented. Endothelial cells isolated and cultured from six biologically independent mice/group were performed in triplicate and analyzed for ^14C-palmitate uptake analysis. Data are mean±SEM. (FIG. 6B) Radiolabeled [^14C]palmitate oxidation and [^14CO2]release were measured in isolated endothelial cells from kidneys of nondiabetic and diabetic control, GR^ECKO Apoe^−/− and DKO mice. CPM of each sample was counted. Data were normalized to μg protein. Fold activity is presented. Endothelial cells isolated and cultured from six biologically independent mice/group were performed in triplicate and analyzed for ^14C-palmitate uptake analysis. Data are mean±SEM. (FIG. 6C) Body weight, blood glucose, and kidney weight/body weight were measured at the end of these experiments. N=6 biologically independent mice from two experiments. Ex vivo radiolabeled [^14C]palmitate oxidation and [^14CO2]release were measured in kidneys. CPM of each sample was counted. Isolated endothelial cells from five biologically independent mice/group were analyzed in triplicate. Data are mean±SEM. (FIG. 6D) Masson trichrome, Sirius red and PAS staining were analyzed in the kidneys of control, etomoxir- and C75-treated diabetic mice. Representative images are shown; original magnification 300×. Relative area of fibrosis (%) and relative collagen deposition (%) were measured using the ImageJ program. N=8 biologically independent mice per/group from three independent experiments were analyzed. Scale bar 50 μm. Data are mean±SEM. (FIG. 6E) Immunohistochemical analysis of CPT1a and β-catenin. Representative images are shown; original magnification 300×. Scale bar 50 μm. N=6 biologically independent mice per group from three independent experiments. For all panels one-way ANOVA with Tukey post-test was used for analysis of statistical significance. Significance—*p<0.05, **p<0.01, ***p<0.001.
# Body weight, blood glucose, and kidney/body weight ratio and fatty acid oxidation as represented by [^14CO2]release are shown. [^14C]palmitate was used as substrate and CPM counts were normalized by protein. n=6 biologically independent mice/group. Data are mean±SEM. One-way Anova with Tukey multiple comparison post hoc test was used to calculate statistical significance. Significance—*p<0.05.
# Masson trichrome staining (upper panel) and Sirius red (lower panels) in etomoxir- and C75-treated non-diabetic control and GR^ECKO mice. Etomoxir (20 mg/kg) and C75 (15 mg/kg) were dosed (IP) three times per week for 3 weeks in GR^ECKO and control littermates. Representative images are shown; original magnification 400×. Area of fibrosis (%) and relative collage deposition (%) in n=6 biologically independent mice/group were combined from two independent experiments. Scale bar 50 μm. Data are mean±SEM. One-way Anova with Tukey multiple comparison post hoc test was used to calculate statistical significance. Significance-**p<0.01.
# Animal Experimentation. All experiments were performed according to a protocol approved by the Institutional Animal Care and Use Committee at the Yale University School of Medicine and were in accordance with the National Institute of Health (NIH) Guidelines for the Care of Laboratory Animals Mice were housed at an ambient temperature of 68-79° F. with a humidity that ranged between 30%-70%. They were exposed to 12-h light-dark cycles Mice lacking the endothelial glucocorticoid receptor (GR) (known as GR^ECKO) and those lacking this receptor on the Apoe null background (DKO) were generated as previously described^25; these mice were on the C57BL/6 background. […]
# [2] = kidney ECs from diabetic GR^ECKO mice
# [3] = kidney ECs, non-diabetic control littermates
# [4] = kidneys of diabetic GR^ECKO mice
# [5] = kidneys of diabetic control mice
Structure (SMILES),CPT1a level (diabetic CD-1 mice),"FAO, as measured by [14CO2] release (diabetic CD-1 mice)",β-catenin level (diabetic CD-1 mice),fibrogenic phenotype / level of fibrosis (diabetic CD-1 mice),level of GR protein in CD31 positive cells (diabetic CD-1 mice),fibronectin mRNA level (diabetic CD-1 mice),αSMA mRNA level (diabetic CD-1 mice),"expression of CPT1a (immunohistochemical analysis, FIG. 6E) ([1]; diabetic GR^ECKO mice)","expression of β-catenin (immunohistochemical analysis, FIG. 6E) ([1]; diabetic GR^ECKO mice)","expression of CPT1a (immunohistochemical analysis, FIG. 6E) ([1]; diabetic control mice)","expression of β-catenin (immunohistochemical analysis, FIG. 6E) ([1]; diabetic control mice)","FAO [1, 2]","FAO [1, 3]","CPT1a level [1, 4]","level of β-catenin [1, 4]","renal fibrogenic phenotype [1, 4]","CPT1a level [1, 5]","level of β-catenin [1, 5]","renal fibrogenic phenotype [1, 5]",level of renal fibrosis [1]
CCOC(=O)[C@@]1(CCCCCCOc2ccc(Cl)cc2)CO1 [etomoxir],significant suppression,significant suppression,induced the expression of β-catenin,exacerbated the fibrosis,suppressed it,upregulated,upregulated,A similar pattern was observed,A similar pattern was observed,decreased expression of CPT1a,increasing expression of β-catenin,significant suppression of FAO,significant suppression of FAO,suppressed the CPT1a level,increased the expression level of β-catenin,accelerated the renal fibrogenic phenotype,suppressed the CPT1a level,increased the expression level of β-catenin,accelerated the renal fibrogenic phenotype,slightly increased the level of renal fibrosis
C=C1C(=O)OC(CCCCCCCC)C1C(=O)O (stereo not shown) [C75],increased the expression of CPT1a,increased the level of FAO,suppressed the level of β-catenin,ameliorated the fibrogenic phenotype,restored,downregulated,downregulated,A similar pattern was observed,A similar pattern was observed,substantially reverse,substantially reverse,unable to rescue,restored FAO,"also observed in the GR^ECKO mice, though to a lesser extent","also observed in the GR^ECKO mice, though to a lesser extent","also observed in the GR^ECKO mice, though to a lesser extent",restored CPT1a,completely diminished the level of β-catenin,clearly abolished the renal fibrogenic phenotype,mitigated

# Reference: patent US20250179167A1, “IL-6 INHIBITOR AS TREATMENT FOR NEPHROPATHY” (YALE UNIVERSITY, priority 2022, published 2025)
